Measured values as given in BindingDB's records for patent US10376513 (Incyte Holdings Corporation, 2019).
pIC50: −log10 of the molar value.

Molecular target: T1, Phosphatidylinositol 4,5-bisphosphate 3-kinase catalytic subunit delta isoform (Homo sapiens, UniProt O00329)
T1 sequence (O00329 whole entry): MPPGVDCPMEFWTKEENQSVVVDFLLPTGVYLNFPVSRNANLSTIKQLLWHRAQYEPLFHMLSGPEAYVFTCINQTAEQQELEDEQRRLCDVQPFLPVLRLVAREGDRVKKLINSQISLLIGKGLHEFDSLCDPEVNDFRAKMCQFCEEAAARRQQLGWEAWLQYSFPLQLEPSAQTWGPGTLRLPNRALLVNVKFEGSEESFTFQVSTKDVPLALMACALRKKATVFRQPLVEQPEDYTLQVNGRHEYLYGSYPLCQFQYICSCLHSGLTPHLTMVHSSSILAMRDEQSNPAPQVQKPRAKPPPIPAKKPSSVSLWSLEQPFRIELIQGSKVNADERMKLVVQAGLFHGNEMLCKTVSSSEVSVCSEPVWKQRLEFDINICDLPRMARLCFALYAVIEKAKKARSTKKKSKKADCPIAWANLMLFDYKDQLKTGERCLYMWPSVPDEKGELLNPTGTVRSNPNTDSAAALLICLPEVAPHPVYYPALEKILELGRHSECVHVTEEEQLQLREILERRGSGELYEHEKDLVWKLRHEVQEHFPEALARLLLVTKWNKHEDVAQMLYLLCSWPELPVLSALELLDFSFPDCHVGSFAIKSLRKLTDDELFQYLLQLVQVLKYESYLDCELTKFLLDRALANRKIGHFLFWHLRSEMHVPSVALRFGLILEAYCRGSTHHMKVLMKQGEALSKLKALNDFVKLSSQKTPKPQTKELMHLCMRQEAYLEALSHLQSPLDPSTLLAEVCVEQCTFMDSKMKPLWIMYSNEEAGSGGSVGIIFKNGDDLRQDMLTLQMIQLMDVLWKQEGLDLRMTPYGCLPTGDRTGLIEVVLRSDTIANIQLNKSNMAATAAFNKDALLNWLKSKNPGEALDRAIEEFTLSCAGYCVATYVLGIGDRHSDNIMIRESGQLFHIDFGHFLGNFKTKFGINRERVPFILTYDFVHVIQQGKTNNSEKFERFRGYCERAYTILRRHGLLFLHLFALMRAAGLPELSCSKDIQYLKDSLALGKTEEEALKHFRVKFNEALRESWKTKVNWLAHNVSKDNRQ
Assay: PI3Kdelta Scintillation Proximity A3 Assay
Description: [γ-33P]ATP (10 mCi/mL) was purchased from Perkin-Elmer (Waltham, Mass.). […] PI3Kδ (p110δ/p85α) was purchased from Millipore (Bedford, Mass.). ATP, MgCl2, DTT, EDTA, MOPS and CHAPS were purchased from Sigma-Aldrich (St. Louis, Mo.). Wheat Germ Agglutinin (WGA) YSi SPA Scintillation Beads was purchased from GE healthcare life sciences (Piscataway, N.J.).The kinase reaction was conducted in polystyrene 384-well matrix white plate from Thermo Fisher Scientific in a final volume of 25 μL. Inhibitors were first diluted serially in DMSO and added to the plate wells before the addition of other reaction components. The final concentration of DMSO in the assay was 0.5%. The PI3K assays were carried out at room temperature in 20 mM MOPS, pH 6.7, 10 mM MgCl2, 5 mM DTT and CHAPS 0.03%. Reactions were initiated by the addition of ATP, the final reaction mixture consisted of 20 μM PIP2, 20 μM ATP, 0.2 μCi [γ-33P] ATP, 4 nM PI3Kδ. […] 25 mM EDTA, 400 μM ATP. The final concentration of SPA beads was 1.0 mg/mL. After the plate sealing, plates were shaken overnight at room temperature and centrifuged at 1800 rpm for 10 minutes, the radioactivity of the product was determined by scintillation counting on Topcount (Perkin-Elmer). IC50 determination was performed by fitting the curve of percent control activity versus the log of the inhibitor concentration using the GraphPad Prism 3.0 software.

pIC50: > 8.00
Compound: COc1c(C(C)n2nc(C3C=NNC3)c3c(N)ncnc32)cc(Cl)c(C)c1C1CN(CC#N)C1 (stereo unspecified) [US10376513, Example 126]
